Measured values: PubChem BioAssay AID1918944 (Molecular Pharmacology Branch, DTP, NCI, 2023)

System: 786-0 complex spheroid viability
Assay: Anticancer human tumor 786-0 cell line growth inhibition;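 note: spheroids exposed to agents for seven days before readout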
Details: for IC50: curve of first compound; for viability, T/C: stronger effect = lower value
Text: Multicellular complex tumor spheroid response to LSD1 Inhibitor Iadademstat in combination with a variety of drugs and investigational agents in selected tumor cell lines
The current study was undertaken to assess response to LSD1 inhibitors in combination with standard-of-care drugs and investigational agents in solid tumor complex spheroid models as well as in the K-562 leukemia. Complex spheroids include a stromal component modeled by human endothelial cells (HUVEC) and fibroblasts modeled by human mesenchymal stem cells (MSCs). The concentration ranges selected for each drug and investigational agent were based upon clinically achievable concentrations if the clinical Cmax of the agent was known.
Compounds. The drugs and investigational agents used in this study are listed on Table 1. All of the agents used, including staurosporine (NSC755774) and gemcitabine (NSC613327), were obtained from the Developmental Therapeutics Program, NCI. FDA-approved anticancer drugs are available from the NCI at http://dtp.nci.nih.gov/branches/dscb/oncology_drugset_explanation.html. Drugs and investigational agents were >95% pure by proton nuclear magnetic resonance (NMR) and liquid chromatography/mass spectrometry (LC/MS). Stock solutions were prepared at 400x in DMSO, stored at -70 degrees C, and diluted in fresh medium prior to their use. The final concentration of DMSO in cell culture wells never exceeded 0.25% (v/v). The FDA-approved anticancer drug set is available from the Developmental Therapeutics Program at https://dtp.cancer.gov/organization/dscb/obtaining/available_plates.htm. All drugs and investigational agents were tested over a range starting from a high concentration at or near the clinical Cmax and decreasing in half-log increments. If the clinical Cmax for an agent had not been determined, the highest concentration tested was 10 microM.
Cell Lines. The patient-derived cancer cell (PDC) lines: 292921-168-R-J2-PDC, K24384-001-R-PDC, and 521955-158-R2-J5-PDC pancreatic carcinomas, 556581-035-R-J1 ovarian carcinoma, 324938-238-R-J1-PDC, 855422-203-R-J1-PDC and 883617-216-R-J1-PDC urothelial bladder carcinomas, 743489-274-T-PDC renal cell carcinoma, 138582-R-J1 Merkel cell tumor, K60290-347-R-J1 and K57222-313-R-J1-PDC glioblastomas, 653999-131-R-J2-PDC, LG0703-F948-PDC, and 349418-098-R-PDC non-small cell lung carcinomas, 885512-296-R-J2-PDC, 171881-019-R-J1-PDC breast carcinomas and 186277-243-T-J2-PDC and 233499-124-R-J2-PDC colon carcinomas were obtained from the NCI Patient-Derived Models Repository (PDMR, https://pdmr.cancer.gov). The established cell lines NCI/ADR-RES (RRID:CVCL_14520 and OVCAR-5 (RRID:CVCL_1628) ovarian carcinomas, 786-O (RRID:CVCL_1051) and A498 (RRID:CVCL_A498) renal cell carcinoma, NCI-H211 (ATCC, cat. CRL-5824; RRID:CVCL_1529), NCI-H196 (ATCC, cat. CRL-5823, RRID:CVCL_1509), SW 1271 (ATCC, cat. CRL-2177, RRID:CVCL_1716) and NCI-H1876 (ATCC, cat. CRL-5902, RRID:CVCL_1503) small cell lung carcinomas, MDA-MB-231 (RRID:CVCL_0062) and MDA-MB-468 (RRID:CVCL_0419)breast carcinomas (10-12). Pooled donor human umbilical vein endothelial cells (HUVEC, Lonza, cat. CC-2519) and human mesenchymal stem cells (hMSC, Lonza, cat. PT-2501) were purchased from Lonza (Walkersville, MD).
Cell Culture. All cells were maintained in an incubator at 37 degrees C and 5% CO2 with 95% humidity. The PDC lines were cultured according to standard operating procedures established by the NCI PDMR (https://pdmr.cancer.gov). Briefly all PDCs were thawed and cultured in Matrigel-coated flasks prepared with a working solution of 1X Ham's F-12 nutrient mix, without supplementation (Invitrogen, Waltham, MA, cat. 11765054), 100 U/mL penicillin-streptomycin (Invitrogen, cat. 15140122), and 2.5% Matrigel (Corning Inc., Corning, NY, cat. 354248) for the first three passages. […]

[1] = second compound 0.1 µM, first compound 0.000316 µM
[2] = second compound 0.1 µM, first compound 0.001 µM
[3] = second compound 0.1 µM, first compound 0.00316 µM
[4] = second compound 0.1 µM, first compound 0.01 µM
[5] = second compound 0.1 µM, first compound 0.0316 µM
[6] = second compound 0.1 µM, first compound 0.1 µM
[7] = second compound 0.316 µM, first compound 0.000316 µM
[8] = second compound 0.316 µM, first compound 0.001 µM
[9] = second compound 0.316 µM, first compound 0.00316 µM
[10] = second compound 0.316 µM, first compound 0.01 µM
[11] = second compound 0.316 µM, first compound 0.0316 µM
[12] = second compound 0.316 µM, first compound 0.1 µM
[13] = second compound 1 µM, first compound 0.000316 µM
[14] = second compound 1 µM, first compound 0.001 µM
[15] = second compound 1 µM, first compound 0.00316 µM
[16] = second compound 1 µM, first compound 0.01 µM
[17] = second compound 1 µM, first compound 0.0316 µM
[18] = second compound 1 µM, first compound 0.1 µM
[19] = second compound 3.16 µM, first compound 0.000316 µM
[20] = second compound 3.16 µM, first compound 0.001 µM
[21] = second compound 3.16 µM, first compound 0.00316 µM
[22] = second compound 3.16 µM, first compound 0.01 µM
[23] = second compound 3.16 µM, first compound 0.0316 µM
[24] = second compound 3.16 µM, first compound 0.1 µM
[25] = second compound 10 µM, first compound 0.000316 µM
[26] = second compound 10 µM, first compound 0.001 µM
[27] = second compound 10 µM, first compound 0.00316 µM
[28] = second compound 10 µM, first compound 0.01 µM
[29] = second compound 10 µM, first compound 0.0316 µM
[30] = second compound 10 µM, first compound 0.1 µM
[31] = second compound 0.1 µM, first compound 0.00949 µM
[32] = second compound 0.1 µM, first compound 0.03 µM
[33] = second compound 0.1 µM, first compound 0.0949 µM
[34] = second compound 0.1 µM, first compound 0.3 µM
[35] = second compound 0.1 µM, first compound 0.949 µM
[36] = second compound 0.1 µM, first compound 3 µM
[37] = second compound 0.316 µM, first compound 0.00949 µM
[38] = second compound 0.316 µM, first compound 0.03 µM
[39] = second compound 0.316 µM, first compound 0.0949 µM
[40] = second compound 0.316 µM, first compound 0.3 µM
[41] = second compound 0.316 µM, first compound 0.949 µM
[42] = second compound 0.316 µM, first compound 3 µM
[43] = second compound 1 µM, first compound 0.00949 µM
[44] = second compound 1 µM, first compound 0.03 µM
[45] = second compound 1 µM, first compound 0.0949 µM
[46] = second compound 1 µM, first compound 0.3 µM
[47] = second compound 1 µM, first compound 0.949 µM
[48] = second compound 1 µM, first compound 3 µM
[49] = second compound 3.16 µM, first compound 0.00949 µM
[50] = second compound 3.16 µM, first compound 0.03 µM
[51] = second compound 3.16 µM, first compound 0.0949 µM
[52] = second compound 3.16 µM, first compound 0.3 µM
[53] = second compound 3.16 µM, first compound 0.949 µM
[54] = second compound 3.16 µM, first compound 3 µM
[55] = second compound 10 µM, first compound 0.00949 µM
[56] = second compound 10 µM, first compound 0.03 µM
[57] = second compound 10 µM, first compound 0.0949 µM
[58] = second compound 10 µM, first compound 0.3 µM
[59] = second compound 10 µM, first compound 0.949 µM
[60] = second compound 10 µM, first compound 3 µM

Cn1ncnc1C1c2n[nH]c(=O)c3cc(F)cc(c23)NC1c1ccc(F)cc1 (stereo not given) + NC1CCC(NC2CC2c2ccccc2)CC1
IC50 (second compound 0.1 µM): > 100 nM
IC50 (second compound 0.316 µM): > 100 nM
IC50 (second compound 1 µM): > 100 nM
IC50 (second compound 3.16 µM): > 100 nM
IC50 (second compound 10 µM): > 100 nM
viability, T/C [1]: 117%
viability, T/C [2]: 114%
viability, T/C [3]: 117%
viability, T/C [4]: 113%
viability, T/C [5]: 109%
viability, T/C [6]: 109%
viability, T/C [7]: 127%
viability, T/C [8]: 118%
viability, T/C [9]: 121%
viability, T/C [10]: 117%
viability, T/C [11]: 115%
viability, T/C [12]: 113%
viability, T/C [13]: 109%
viability, T/C [14]: 115%
viability, T/C [15]: 114%
viability, T/C [16]: 115%
viability, T/C [17]: 110%
viability, T/C [18]: 105%
viability, T/C [19]: 107%
viability, T/C [20]: 106%
viability, T/C [21]: 112%
viability, T/C [22]: 109%
viability, T/C [23]: 106%
viability, T/C [24]: 98.8%
viability, T/C [25]: 90.5%
viability, T/C [26]: 88.1%
viability, T/C [27]: 91.5%
viability, T/C [28]: 89.3%
viability, T/C [29]: 91.5%
viability, T/C [30]: 84.1%

NS(=O)(=O)OCC1CC(n2ccc3c(NC4CCc5ccccc54)ncnc32)CC1O (stereo not given) + NC1CC1c1ccc(-c2cccc(O)c2)cc1
IC50 (second compound 0.1 µM): 190 nM
IC50 (second compound 0.316 µM): 178 nM
IC50 (second compound 1 µM): 168 nM
IC50 (second compound 3.16 µM): 175 nM
IC50 (second compound 10 µM): 165 nM
viability, T/C [31]: 113%
viability, T/C [32]: 96.6%
viability, T/C [33]: 94%
viability, T/C [34]: 21%
viability, T/C [35]: 9.54%
viability, T/C [36]: 13.7%
viability, T/C [37]: 104%
viability, T/C [38]: 92.9%
viability, T/C [39]: 88.5%
viability, T/C [40]: 18.2%
viability, T/C [41]: 9.34%
viability, T/C [42]: 14.3%
viability, T/C [43]: 117%
viability, T/C [44]: 98.6%
viability, T/C [45]: 79.1%
viability, T/C [46]: 20.3%
viability, T/C [47]: 9.8%
viability, T/C [48]: 15.8%
viability, T/C [49]: 110%
viability, T/C [50]: 88.1%
viability, T/C [51]: 83.4%
viability, T/C [52]: 20.8%
viability, T/C [53]: 10.9%
viability, T/C [54]: 16.5%
viability, T/C [55]: 99.9%
viability, T/C [56]: 89%
viability, T/C [57]: 76.6%
viability, T/C [58]: 21.3%
viability, T/C [59]: 13%
viability, T/C [60]: 15.4%

Nc1ccccc1NC(=O)c1ccc(CNC(=O)OCc2cccnc2)cc1 + NC1CC1c1ccc(-c2cccc(O)c2)cc1
IC50 (second compound 0.1 µM): 1520 nM
IC50 (second compound 0.316 µM): 1770 nM
IC50 (second compound 1 µM): 1520 nM
IC50 (second compound 3.16 µM): 1380 nM
IC50 (second compound 10 µM): 1370 nM
viability, T/C [31]: 107%
viability, T/C [32]: 108%
viability, T/C [33]: 97.8%
viability, T/C [34]: 96.1%
viability, T/C [35]: 66.3%
viability, T/C [36]: 25.6%
viability, T/C [37]: 113%
viability, T/C [38]: 110%
viability, T/C [39]: 112%
viability, T/C [40]: 103%
viability, T/C [41]: 78.8%
viability, T/C [42]: 25.8%
viability, T/C [43]: 103%
viability, T/C [44]: 114%
viability, T/C [45]: 110%
viability, T/C [46]: 91.8%
viability, T/C [47]: 71%
viability, T/C [48]: 21.1%
viability, T/C [49]: 99.4%
viability, T/C [50]: 102%
viability, T/C [51]: 98%
viability, T/C [52]: 89.9%
viability, T/C [53]: 64.3%
viability, T/C [54]: 20.7%
viability, T/C [55]: 103%
viability, T/C [56]: 101%
viability, T/C [57]: 97.9%
viability, T/C [58]: 83.1%
viability, T/C [59]: 67.2%
viability, T/C [60]: 17.5%

CC(C)CC(NC(=O)C(Cc1ccccc1)NC(=O)c1cnccn1)B(O)O (stereo not given) + NC1CC1c1ccc(-c2cccc(O)c2)cc1
IC50 (second compound 0.1 µM): 3.71 nM
IC50 (second compound 0.316 µM): 3.52 nM
IC50 (second compound 1 µM): 3.41 nM
IC50 (second compound 3.16 µM): 3.23 nM
IC50 (second compound 10 µM): 2.35 nM
viability, T/C [1]: 114%
viability, T/C [2]: 110%
viability, T/C [3]: 55.5%
viability, T/C [4]: 11.2%
viability, T/C [5]: 1.11%
viability, T/C [6]: 0.47%
viability, T/C [7]: 114%
viability, T/C [8]: 111%
viability, T/C [9]: 53.5%
viability, T/C [10]: 9.41%
viability, T/C [11]: 1.04%
viability, T/C [12]: 0.33%
viability, T/C [13]: 114%
viability, T/C [14]: 109%
viability, T/C [15]: 51.8%
viability, T/C [16]: 10.7%
viability, T/C [17]: 1.17%
viability, T/C [18]: 0.5%
viability, T/C [19]: 105%
viability, T/C [20]: 110%
viability, T/C [21]: 50.4%
viability, T/C [22]: 9.96%
viability, T/C [23]: 1.23%
viability, T/C [24]: 0.53%
viability, T/C [25]: 102%
viability, T/C [26]: 99.6%
viability, T/C [27]: 32.9%
viability, T/C [28]: 6.5%
viability, T/C [29]: 0.86%
viability, T/C [30]: 0.34%
